Measured values taken from ChEMBL document CHEMBL5034015, “Structure-Based Optimization of 3-Phenyl-N-(2-(3-phenylureido)ethyl)thiophene-2-sulfonamide Derivatives as Selective Mcl-1 Inhibitors” (J Med Chem, 2021).
Activity calls are given as the source filed them. Unless noted, the rule behind the calls is not given here.

Columns and labels:
[1] = biological target: T1, Induced myeloid leukemia cell differentiation protein Mcl-1 (Homo sapiens, UniProt Q07820); assay: Binding affinity to 15N-labeled human MCL1 (172 to 327 residues) expressed in Escherichia coli BL21 (DE3) assessed as chemical shift at M250 residue at 0.3 mM incubated for 1 hr by 15N HSQC NMR spectroscopy analysis
T1 sequence (Q07820 whole entry, the tested form may be a part): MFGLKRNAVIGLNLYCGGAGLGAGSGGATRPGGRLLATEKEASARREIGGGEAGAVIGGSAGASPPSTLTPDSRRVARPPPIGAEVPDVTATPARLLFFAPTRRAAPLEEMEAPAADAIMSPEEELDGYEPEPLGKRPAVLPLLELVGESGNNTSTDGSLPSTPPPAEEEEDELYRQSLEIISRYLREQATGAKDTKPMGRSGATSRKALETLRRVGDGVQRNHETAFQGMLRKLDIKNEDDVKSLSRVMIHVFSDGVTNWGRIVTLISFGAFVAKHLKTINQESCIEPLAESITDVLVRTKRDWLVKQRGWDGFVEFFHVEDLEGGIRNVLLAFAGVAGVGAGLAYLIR

Bcl-2-like protein 1 [2] = biological target: T2, Bcl-2-like protein 1 (Homo sapiens, UniProt Q07817); assay: Binding affinity to full length human Bcl-xl expressed in Escherichia coli BL21 (DE3) at 100 uM preincubated for 30 mins followed by 5-FAM-QEDIIIINIARHLAQVGDSMD-RSIPPG tracer addition and measured after 20 mins by fluorescence polarization assay relative to control; settings: time 50.0 min
T2 sequence (Q07817 whole entry, the tested form may be a part): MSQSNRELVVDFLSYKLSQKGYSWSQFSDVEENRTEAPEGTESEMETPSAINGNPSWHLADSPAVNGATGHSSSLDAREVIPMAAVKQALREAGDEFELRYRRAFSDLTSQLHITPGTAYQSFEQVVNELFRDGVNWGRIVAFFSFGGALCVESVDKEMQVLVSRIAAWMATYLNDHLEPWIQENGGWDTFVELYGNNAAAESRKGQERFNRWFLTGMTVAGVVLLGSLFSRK

[3] = biological target: T1, Induced myeloid leukemia cell differentiation protein Mcl-1; assay: Binding affinity to 15N-labeled human MCL1 (172 to 327 residues) expressed in Escherichia coli BL21 (DE3) assessed as chemical shift at H224 residue at 0.3 mM incubated for 1 hr by 15N HSQC NMR spectroscopy analysis
[4] = biological target: T1, Induced myeloid leukemia cell differentiation protein Mcl-1; assay: Binding affinity to 15N-labeled human MCL1 (172 to 327 residues) expressed in Escherichia coli BL21 (DE3) assessed as chemical shift at F228 residue at 0.3 mM incubated for 1 hr by 15N HSQC NMR spectroscopy analysis
HL-60 [5] = assay: cells; settings: Homo sapiens, HL-60, 48 h
Description: Cytotoxicity against human HL-60 cells assessed as inhibition of cell growth incubated for 48 hrs by CCK8 assay

[6] = biological target: T1, Induced myeloid leukemia cell differentiation protein Mcl-1; assay: Binding affinity to full length human MCL1 expressed in Escherichia coli BL21 (DE3) at 100 uM preincubated for 30 mins followed by 5-FAM-QEDIIIINIARHLAQVGDSMD-RSIPPG tracer addition and measured after 20 mins by fluorescence polarization assay relative to control; settings: time 50.0 min
HeLa [7] = assay: cells; settings: Homo sapiens, 48 h
Description: Cytotoxicity against human HeLa cells assessed as inhibition of cell growth incubated for 48 hrs by CCK8 assay

[8] = biological target: T3, Apoptosis regulator Bcl-2 (Homo sapiens, UniProt P10415); assay: Binding affinity to full length human Bcl-2 expressed in Escherichia coli BL21 (DE3) at 100 uM preincubated for 30 mins followed by 5-FAM-QEDIIIINIARHLAQVGDSMD-RSIPPG tracer addition and measured after 20 mins by fluorescence polarization assay relative to control; settings: time 50.0 min
T3 sequence (P10415 whole entry): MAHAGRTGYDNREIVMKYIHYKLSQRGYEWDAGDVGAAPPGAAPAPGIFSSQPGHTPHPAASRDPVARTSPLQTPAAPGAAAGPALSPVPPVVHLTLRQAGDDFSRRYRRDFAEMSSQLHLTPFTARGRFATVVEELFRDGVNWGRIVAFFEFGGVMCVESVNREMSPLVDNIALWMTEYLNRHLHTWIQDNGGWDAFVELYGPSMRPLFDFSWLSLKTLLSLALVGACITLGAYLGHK

HEK-293T = assay: Cytotoxicity against HEK293T cells assessed as reduction in cell viability incubated for 48 hrs by CCK8 assay; settings: Homo sapiens
[9] = biological target: T1, Induced myeloid leukemia cell differentiation protein Mcl-1; assay: Binding affinity to 15N-labeled human MCL1 (172 to 327 residues) expressed in Escherichia coli BL21 (DE3) assessed as chemical shift at M231 residue at 0.3 mM incubated for 1 hr by 15N HSQC NMR spectroscopy analysis
RS4-11 = assay: cells; settings: Homo sapiens, RS4-11, 48 h
Description: Cytotoxicity against human RS4-11 cells assessed as inhibition of cell growth incubated for 48 hrs by CCK8 assay

[10] = biological target: T1, Induced myeloid leukemia cell differentiation protein Mcl-1; assay: Binding affinity to 15N-labeled human MCL1 (172 to 327 residues) expressed in Escherichia coli BL21 (DE3) assessed as chemical shift at R263 residue at 0.3 mM incubated for 1 hr by 15N HSQC NMR spectroscopy analysis
[11] = biological target: T1, Induced myeloid leukemia cell differentiation protein Mcl-1; assay: Binding affinity to 15N-labeled human MCL1 (172 to 327 residues) expressed in Escherichia coli BL21 (DE3) assessed as chemical shift at L235 residue at 0.3 mM incubated for 1 hr by 15N HSQC NMR spectroscopy analysis
[12] = biological target: T3, Apoptosis regulator Bcl-2; assay: Binding affinity to full length human Bcl-2 expressed in Escherichia coli BL21 (DE3) at up to 100 uM preincubated for 30 mins followed by 5-FAM-QEDIIIINIARHLAQVGDSMD-RSIPPG tracer addition and measured after 20 mins by fluorescence polarization assay; settings: dose microM <=100, time 50.0 min
HeLa [13] = assay: Cytotoxicity against human HeLa cells assessed as cell viability at 20 uM incubated for 48 hrs by CCK8 assay relative to control; type: functional; settings: read-out: Activity
[14] = biological target: T1, Induced myeloid leukemia cell differentiation protein Mcl-1; assay: Binding affinity to full length human MCL1 expressed in Escherichia coli BL21 (DE3) at up to 100 uM preincubated for 30 mins followed by 5-FAM-QEDIIIINIARHLAQVGDSMD-RSIPPG tracer addition and measured after 20 mins by fluorescence polarization assay; settings: dose microM <=100, time 50.0 min
Bcl-2-like protein 1 [15] = biological target: T2, Bcl-2-like protein 1; assay: Binding affinity to full length human Bcl-xl expressed in Escherichia coli BL21 (DE3) at up to 100 uM preincubated for 30 mins followed by 5-FAM-QEDIIIINIARHLAQVGDSMD-RSIPPG tracer addition and measured after 20 mins by fluorescence polarization assay; settings: dose microM <=100, time 50.0 min
[16] = biological target: T1, Induced myeloid leukemia cell differentiation protein Mcl-1; assay: Binding affinity to full length human MCL1 expressed in Escherichia coli BL21 (DE3) assessed as inhibition constant preincubated for 30 mins followed by 5-FAM-QEDIIIINIARHLAQVGDSMD-RSIPPG tracer addition and measured after 20 mins by fluorescence polarization assay
HL-60 [17] = assay: Cytotoxicity against human HL-60 cells assessed as cell viability at 20 uM incubated for 48 hrs by CCK8 assay relative to control; type: functional; settings: read-out: Activity
[18] = biological target: T3, Apoptosis regulator Bcl-2; assay: Binding affinity to full length human Bcl-2 expressed in Escherichia coli BL21 (DE3) assessed as inhibition constant preincubated for 30 mins followed by 5-FAM-QEDIIIINIARHLAQVGDSMD-RSIPPG tracer addition and measured after 20 mins by fluorescence polarization assay
[19] = Cytotoxicity against HEK293T cells assessed as cell viability at 20 uM incubated for 48 hrs by CCK8 assay relative to control; type: cell-based, HEK-293T; settings: human, read-out: Activity
Bcl-2-like protein 1 [20] = biological target: T2, Bcl-2-like protein 1; assay: Binding affinity to full length human Bcl-xl expressed in Escherichia coli BL21 (DE3) assessed as inhibition constant preincubated for 30 mins followed by 5-FAM-QEDIIIINIARHLAQVGDSMD-RSIPPG tracer addition and measured after 20 mins by fluorescence polarization assay
[21] = biological target: Induced myeloid leukemia cell differentiation protein Mcl-1/Bcl-2-like protein 11 (Homo sapiens) (UniProt Q07820+O43521); assay: Inhibition of MCL1/Bim interaction in human MCF7 cells assessed as disruption of MCL1/Bim complex at 10 uM measured after 24 hrs by co-immunoprecipitation based western blot analysis relative to control; type: cell-based
Sequence of Induced myeloid leukemia cell differentiation protein Mcl-1/Bcl-2-like protein 11 (Homo sapiens) (O43521 whole entry, looked up): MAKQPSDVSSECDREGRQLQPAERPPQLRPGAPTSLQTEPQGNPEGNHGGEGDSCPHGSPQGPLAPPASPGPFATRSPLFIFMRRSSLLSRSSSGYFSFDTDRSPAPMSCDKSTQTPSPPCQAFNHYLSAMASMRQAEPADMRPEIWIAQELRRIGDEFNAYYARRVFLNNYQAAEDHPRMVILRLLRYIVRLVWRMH
Sequence of Induced myeloid leukemia cell differentiation protein Mcl-1/Bcl-2-like protein 11 (Homo sapiens) (Q07820 whole entry, looked up): as the sequence (Q07820 whole entry, the tested form may be a part) above

| Compound | inhibition (Bcl-2-like protein 1 [2]) [%] | IC50 (HL-60 [5]) [µM] | inhibition [6] [%] | IC50 (HeLa [7]) [µM] | inhibition [8] [%] | IC50 (RS4-11) [µM] | Activity [12] | Activity (Bcl-2-like protein 1 [15]) | Ki [16] [µM] | IC50 (HEK-293T) [µM] | viability at 48 h, 20 µM [19] [%] | further results |
| --- | --- | --- | --- | --- | --- | --- | --- | --- | --- | --- | --- | --- |
| CC(C)c1ccc(Oc2ccc(O)c(O)c2)c(-c2ccsc2S(=O)(=O)NCCNC(=O)Nc2cc(C(F)(F)F)cc(C(F)(F)F)c2)c1 |  |  |  | > 50 |  | 6.8 | inactive | inactive | 0.36 | > 20 |  | viability at 20 µM (HL-60 [17]): 23% |
| Cc1nn(C)c(COc2ccc(N3CCN(S(=O)(=O)N(C)C)CC3)cc2)c1-c1cccc2c(CCCOc3cccc4ccccc34)c(C(=O)O)n(CCN3CCOCC3)c12 |  | 2.46 |  | > 20 |  | 7.31 | inactive | inactive | < 0.001 | > 20 |  | Activity [1]: Active; Activity [3]: Active; Activity [4]: Active; Activity [9]: Active; Activity [10]: Active; Activity [11]: Active |
| O=C(NCCNS(=O)(=O)c1ccc(-c2ccccc2O[C@H]2CC[C@H](O)CC2)s1)Nc1cc(C(F)(F)F)cc(C(F)(F)F)c1 |  | 7.1 |  | > 20 |  | 10.1 | inactive | inactive |  |  | 50 | Activity [14]: inactive |
| CC(C)c1ccc(Oc2ccc(O)c(O)c2)c(-c2ccsc2S(=O)(=O)NCCNC(=S)Nc2cc(C(F)(F)F)cc(C(F)(F)F)c2)c1 |  | 8.2 |  | > 20 |  | 3.7 |  |  | 2.1 | 18.1 |  | Activity [1]: Active; Activity [3]: Active; Activity [4]: Active; Ki [18]: 2.4 µM; Activity [9]: Active; Activity [10]: Active; Ki (Bcl-2-like protein 1 [20]): 4.9 µM; Activity [11]: Active |
| O=[N+]([O-])c1ccc(NC(=S)N2CCN(S(=O)(=O)c3sccc3-c3ccccc3Oc3ccc(O)c(O)c3)CC2)cc1 | 28 | 5.3 | 81 |  | 31 | 9 |  |  |  | > 20 |  | viability at 20 µM (HeLa [13]): 49% |
| COc1ccc(Oc2ccccc2-c2ccsc2S(=O)(=O)N2CCN(C(=S)Nc3cc(C(F)(F)F)cc(C(F)(F)F)c3)CC2)cc1OC | 29 |  | 66 | > 50 | 25 | > 50 |  |  |  |  | 42 | viability at 20 µM (HL-60 [17]): 38% |
| COc1ccc(Oc2ccc([N+](=O)[O-])cc2-c2ccsc2S(=O)(=O)N2CCN(C(=S)Nc3ccc(Cl)cc3)CC2)cc1OC | 37 | > 50 | 41 | > 50 | 18 | > 50 |  |  |  | > 50 |  | inhibition [21]: 30% |

Continued, in another order:

| inhibition (Bcl-2-like protein 1 [2]) [%] | IC50 (HL-60 [5]) [µM] | inhibition [6] [%] | IC50 (HeLa [7]) [µM] | inhibition [8] [%] | IC50 (RS4-11) [µM] | Activity [12] | Activity (Bcl-2-like protein 1 [15]) | Ki [16] [µM] | Compound | IC50 (HEK-293T) [µM] | viability at 48 h, 20 µM [19] [%] | further results |
| --- | --- | --- | --- | --- | --- | --- | --- | --- | --- | --- | --- | --- |
| 14 | 8.4 | 52 | > 20 | 12 | 9.5 |  |  |  | O=[N+]([O-])c1ccc(Oc2ccc(O)c(O)c2)c(-c2ccsc2S(=O)(=O)N2CCN(C(=S)Nc3cc(C(F)(F)F)cc(C(F)(F)F)c3)CC2)c1 | > 20 |  | Activity [1]: Active; Activity [3]: Active; Activity [4]: Active; Activity [9]: Active; Activity [10]: Active; Activity [11]: Active |
|  | 10.8 |  |  |  | 10.1 | inactive | inactive |  | O=[N+]([O-])c1ccc(NC(=S)NCCNS(=O)(=O)c2ccc(-c3ccccc3OCc3cccc(O)c3)s2)cc1 | > 20 |  | viability at 20 µM (HeLa [13]): 28%; Activity [14]: inactive |
|  | 3.9 |  | > 20 |  | 7.7 |  | inactive | 7.1 | Cc1ccc(-c2ccsc2S(=O)(=O)NCCNC(=O)Nc2ccc([N+](=O)[O-])cc2)c(Oc2ccc(O)c(O)c2)c1 |  | 48 | Ki [18]: 13 µM |
|  | 3.4 |  |  |  | 6.1 | inactive | inactive | 7.5 | Cc1ccc(-c2ccsc2S(=O)(=O)NCCNC(=S)Nc2cccc([N+](=O)[O-])c2)c(Oc2ccc(O)c(O)c2)c1 | 7.9 |  | viability at 20 µM (HeLa [13]): 40% |
|  | 11.7 |  | > 20 |  | > 20 | inactive | inactive |  | O=C(NCCNS(=O)(=O)c1ccc(-c2ccccc2OCc2ccccc2)s1)Nc1cc(Cl)cc(Cl)c1 |  | 41 | Activity [14]: inactive |
|  | 18.3 |  | > 20 |  | 10.3 |  |  | 0.37 | O=S(=O)(NCCNC(=S)Nc1cc(C(F)(F)F)cc(C(F)(F)F)c1)c1ccc(-c2ccccc2Oc2ccc(O)c(O)c2)s1 | 12.3 |  | Ki [18]: 2.6 µM; Ki (Bcl-2-like protein 1 [20]): 0.93 µM |
